# Laboratory results: patent publication US5801165A, “Antiinflammatory, immunosuppressive and antialleric 16, 17-alkylidioxy-steroids” (Rhone-Poulenc Rorer Limited, priority 1992, dated 1998)
# Target: T1, Rat thymus glucocorticoid receptor (Rattus norvegicus, UniProt P06536)
# T1 construct: The supernatant cytosol is used as the source of receptor; from tissue; host or cells: thymus of male adrenalectomised rats, 100,000 g supernatant cytosol
# T1 sequence (P06536 1-795): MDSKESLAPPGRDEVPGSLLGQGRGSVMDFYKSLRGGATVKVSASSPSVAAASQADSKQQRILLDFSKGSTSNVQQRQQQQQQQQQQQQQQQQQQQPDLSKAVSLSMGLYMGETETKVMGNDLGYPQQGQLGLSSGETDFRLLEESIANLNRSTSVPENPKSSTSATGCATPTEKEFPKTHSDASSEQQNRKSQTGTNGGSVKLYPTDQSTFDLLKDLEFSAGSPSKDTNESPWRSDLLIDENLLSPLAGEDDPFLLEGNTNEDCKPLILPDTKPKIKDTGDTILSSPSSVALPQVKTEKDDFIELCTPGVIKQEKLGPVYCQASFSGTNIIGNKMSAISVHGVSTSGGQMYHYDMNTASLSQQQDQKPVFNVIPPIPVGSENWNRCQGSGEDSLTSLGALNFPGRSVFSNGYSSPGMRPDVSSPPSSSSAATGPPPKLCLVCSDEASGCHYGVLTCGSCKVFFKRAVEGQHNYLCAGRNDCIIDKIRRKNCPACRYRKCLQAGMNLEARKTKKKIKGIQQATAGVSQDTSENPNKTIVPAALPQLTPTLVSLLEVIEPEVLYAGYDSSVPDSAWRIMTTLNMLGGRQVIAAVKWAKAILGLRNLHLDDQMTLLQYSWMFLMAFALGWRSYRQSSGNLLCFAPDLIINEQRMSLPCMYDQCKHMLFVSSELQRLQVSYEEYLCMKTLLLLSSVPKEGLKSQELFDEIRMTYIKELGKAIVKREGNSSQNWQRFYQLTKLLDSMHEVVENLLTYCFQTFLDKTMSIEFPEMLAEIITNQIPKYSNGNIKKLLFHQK
# Assay: Steroid binding to the rat thymus glucocorticoid receptor ([3H] dexamethasone displacement)
# Conditions: not given
# Source text: GLUCOCORTICOID AGONIST ACTIVITY
# STEROID BINDING TO THE RAT THYMUS GLUCOCORTICOID RECEPTOR
# Thymi of male adrenalectomised rats are removed and homogenised in 3-(N-morpholino)propanesulphonic acid dithiothreitol buffer, and centrifuged at 100,000 g. The supernatant cytosol is used as the source of receptor. […] Bound [^3 H] dexamethasone is separated from free dexamethasone by a dextran coated charcoal technique and is quantified by liquid scintillation counting.
row,Structure (SMILES),IC50
1,"CCC[C@@H]1O[C@@H]2C[C@H]3[C@@H]4C[C@H](F)C5=CC(=O)C=C[C@]5(C)[C@@]4(F)[C@@H](O)C[C@]3(C)[C@]2(SCF)O1 [(20R)-16α,17α-Butylidenedioxy-6α,9α-difluoro-11β-hydroxy-17β-(fluoromethylthio)androsta-1,4-dien-3-one]",2.7 nM
2,"CS[C@@]12OC(C)(C)O[C@@H]1C[C@H]1[C@@H]3CCC4=CC(=O)C=C[C@]4(C)[C@@]3(F)[C@@H](O)C[C@@]12C [9α-Fluoro-11β-hydroxy-16α,17α-isopropylidenedioxy-17β-(methylthio)androsta-1,4-dien-3-one]",1.6 nM
3,"CCCC1O[C@@H]2C[C@H]3[C@@H]4CCC5=CC(=O)C=C[C@]5(C)[C@@]4(F)[C@@H](O)C[C@]3(C)[C@]2(Sc2ccccn2)O1 (stereo partly drawn) [(20R,S)-16α,17α-Butylidenedioxy-9α-fluoro-11β-hydroxy-17β-(2-pyridylthio)androsta-1,4-dien-3-one]",11.3 nM
4,"CCC[C@@H]1O[C@@H]2C[C@H]3[C@@H]4C[C@H](F)C5=CC(=O)C=C[C@]5(C)[C@@]4(F)[C@@H](O)C[C@]3(C)[C@]2(SC)O1 [(20R)-16α,17α-butylidenedioxy-6α,9α-difluoro-11β-hydroxy-17β-(methylthio)-androsta-1,4-dien-3-one]",3.7 nM

# Same assay, conditions: 4 nM [3H] dexamethasone, 24 hours at 4° C., rat thymus cytosol; read-out: IC50 (concentration reducing [3H] dexamethasone binding by 50%)
row,Structure (SMILES),IC50
1,"CCC[C@@H]1O[C@@H]2C[C@H]3[C@@H]4CC(=O)C5=CC(=O)C=C[C@]5(C)[C@@]4(F)[C@@H](O)C[C@]3(C)[C@]2(SC)O1 [(20R)-16α,17α-butylidenedioxy-9α-fluoro-11β-hydroxy-17β-(methylthio)androsta-1,4-diene-3,6-dione]",2.4 nM
2,"CC1(C)O[C@@H]2C[C@H]3[C@@H]4C[C@H](F)C5=CC(=O)C=C[C@]5(C)[C@@]4(F)[C@@H](O)C[C@]3(C)[C@]2(SCF)O1 [6α,9α-Difluoro-11β-hydroxy-16α,17α-isopropylidenedioxy-17β-(fluoromethylthio)androsta-1,4-dien-3-one]",4.1 nM
3,"CCC[C@@H]1O[C@@H]2C[C@H]3[C@@H]4CCC5=CC(=O)C=C[C@]5(C)[C@@]4(F)[C@@H](O)C[C@]3(C)[C@]2(SC)O1 [(20R)-16α,17α-Butylidenedioxy-9α-fluoro-11β-hydroxy-17β-(methylthio)androsta-1,4-dien-3-one]",1.7 nM
4,"CC1(C)O[C@@H]2C[C@H]3[C@@H]4CCC5=CC(=O)C=C[C@]5(C)[C@@]4(F)[C@@H](O)C[C@]3(C)[C@]2(S(C)(=O)=O)O1 [9α-Fluoro-11β-hydroxy-16α,17α-isopropylidene-dioxy-17β-methylsulphonylandrosta-1,4-dien-3-one]",3.8 nM
5,"CCCC1O[C@@H]2C[C@H]3[C@@H]4CCC5=CC(=O)C=C[C@]5(C)[C@@]4(F)[C@@H](O)C[C@]3(C)[C@]2(SC(C)C)O1 (stereo partly drawn) [(20R,S)-16α,17α-Butylidenedioxy-9α-fluoro-11β-hydroxy-17β-(isopropylthio)androsta-1,4-dien-3-one]",5.5 nM
6,"CC1(C)O[C@@H]2C[C@H]3[C@@H]4CCC5=CC(=O)C=C[C@]5(C)[C@@]4(F)[C@@H](O)C[C@]3(C)[C@]2(Sc2ccccn2)O1 [9α-Fluoro-11β-hydroxy-16α,17α-isopropylidenedioxy-17β-(2-pyridylthio)androsta-1,4-dien-3-one]",27 nM
7,"CCC[C@@H]1O[C@@H]2C[C@H]3[C@@H]4C[C@H](F)C5=CC(=O)CC[C@]5(C)[C@@]4(F)[C@@H](O)C[C@]3(C)[C@]2(SCF)O1 [(20R)-6α,9α-Difluoro-11β-hydroxy-16α,17α-butylidenedioxy-17β-fluoromethylthioandrost-4-en-3-one]",3 nM
8,"CS[C@@]12OC(C)(C)O[C@@H]1C[C@H]1[C@@H]3C[C@H](F)C4=CC(=O)C=C[C@]4(C)[C@@]3(F)[C@@H](O)C[C@@]12C [6α,9α-Difluoro-11β-hydroxy-16α,17α-isopropylidenedioxy-17β-(methylthio)androsta-1,4-dien-3-one]",3.2 nM
9,"CCC[C@@H]1O[C@@H]2C[C@H]3[C@@H]4C[C@H](F)C5CC(=O)CC[C@]5(C)[C@@]4(F)[C@@H](O)C[C@]3(C)[C@]2(SC)O1 (stereo partly drawn) [(20R)-16α,17α-butylidenedioxy-6α,9α-difluoro-11β-hydroxy-17β-(methylthio)androstan-3-one]",2.6 nM
10,"CCCC1O[C@@H]2C[C@H]3[C@@H]4CC(=O)C5=CC(=O)CC[C@]5(C)[C@@]4(F)[C@@H](O)C[C@]3(C)[C@]2(SC)O1 (stereo partly drawn) [(20S)-16α,17α-butylidenedioxy-6α,9α-fluoro-11β-hydroxy-(methylthio)androst-4-en-3,6-dione]",3.4 nM
11,"CCCC1O[C@@H]2C[C@H]3[C@@H]4CCC5=CC(=O)C=C[C@]5(C)[C@@]4(F)[C@@H](O)C[C@]3(C)[C@]2(SCC)O1 (stereo partly drawn) [(20R,S)-16α,17α-Butylidenedioxy-17β-ethylthio-9α-fluoro-11β-hydroxyandrosta-1,4-dien-3-one]",4.1 nM
12,"CCC[C@H]1O[C@@H]2C[C@H]3[C@@H]4C[C@H](F)C5=CC(=O)CC[C@]5(C)[C@@]4(F)[C@@H](O)C[C@]3(C)[C@]2(SC)O1 [(20S)-16α,17α-Butylidenedioxy-6α,9α-difluoro-11β-hydroxy-17β-(methylthio)androst-4-ene-3-one]",2.9 nM
13,"CCC[C@@H]1O[C@@H]2C[C@H]3[C@@H]4CCC5=CC(=O)C=C[C@]5(C)[C@@]4(F)[C@@H](O)C[C@]3(C)[C@]2(SCF)O1 [(20R)-16α,17α-Butylidenedioxy-9α-fluoro-11β-hydroxy-17β-(fluoromethylthio)androsta-1,4-dien-3-one]",7.5 nM
14,"C/C=C/[C@@H]1O[C@@H]2C[C@H]3[C@@H]4CCC5=CC(=O)C=C[C@]5(C)[C@@]4(F)[C@@H](O)C[C@]3(C)[C@]2(SC)O1 [(20R)-16α,17α-[(E)-2-Butenylidenedioxy]-9α-fluoro-11β-hydroxy-17β-(methylthio)androsta-1,4-dien-3-one]",2.6 nM

# Same assay, conditions: read-out: IC50 (concentration reducing [3H] dexamethasone binding by 50%); 4 nM [3H] dexamethasone, 24 hours at 4° C., rat thymus cytosol
row,Structure (SMILES),IC50
1,"CCC[C@H]1O[C@@H]2C[C@H]3[C@@H]4C[C@H](F)C5=CC(=O)C=C[C@]5(C)[C@@]4(F)[C@@H](O)C[C@]3(C)[C@]2(SCF)O1 [(20S)-6α,9α-difluoro-11β-hydroxy-16α,17α-butylidene-fluoromethylthioandrosta-1,4-dien-3-one]",2.5 nM
2,"CCC[C@@H]1O[C@@H]2C[C@H]3[C@@H]4CCC5=CC(=O)C=C[C@]5(C)[C@@]4(F)[C@@H](O)C[C@]3(C)[C@]2([S+](C)[O-])O1 (stereo partly drawn) [(20R)-9α-Fluoro-11β-hydroxy-16α,17α-butylidenedioxy-17β-methylsulphinylandrosta-1,4-dien-3-one]",6.6 nM
